Patent US10874108B2, “Anti-microbial compositions” (5D HEALTH PROTECTION GROUP LTD, priority 2016, dated 2020)
Values joined by “and” are separate entries in the source; they are usually repeats but may differ in a detail not shown here. Identical values can stand only once.

Legend:
interleukin-6 (IL-6) = assay: IL-6 ELISA, wounded biofilm-containing Labskin; type: cell-based; details: 100 ppm; vs S. aureus wound biofilm control
Source text: Enzyme-linked immunosorbent assay (ELISA) was used to assess the secreted levels of the inflammatory cytokine interleukin-6 (IL-6) according to previously published methods (Foster, A. M., Baliwag, J., Chen, C. S., Guzman, A. M., Stoll, S. W., Gudjonsson, J. E., Ward, N. L. & Johnston, A. 2014, IL-36 promotes myeloid cell infiltration, activation, and inflammatory activity in skin, The Journal of Immunology, 192, 6053-6061). […] The IL-6 levels were reduced further when compared to the S. aureus wound biofilm control.
ELISA was used to assess the levels of IL-6 in conditioned cell culture medium. Culture medium was changed at day 4, which accounts for the reduction in IL-6. […] Tests were performed in duplicate. Error bars indicate standard deviation.

[1] = test system: P. aeruginosa 24-hour CDC biofilms; assay: Colonies after exposure of 24-hour CDC biofilms to EDTA compounds; type: cell-based
[2] = test system: S. aureus ATCC 29213 biofilm; assay: MBEC model (ASTM E2799), liquid formulas; type: cell-based; details: treated 24 hours
Protocol: (§1) The MBEC model (ASTM E2799) was used to assess the anti-biofilm efficacy of the liquid formulas. Biofilms were grown on polystyrene pegs in the MBEC model for either 24 or 48 hours before treatment. Using the liquid form of the EDTA complexes 24- and 48-hour biofilms were tested (Table 20).
(§2) 24- and 48-hour biofilms were formed using MBEC plate method and treated for 24 hours. Technical replicates n=3. Log reduction (LR) values show±standard error (SE) of LR value.

[3] = test system: S. aureus MRSA BAA-43 biofilm; assay: MBEC model (ASTM E2799), liquid formulas; type: cell-based; details: treated 24 hours
Protocol: as §1, §2

[4] = test system: S. epidermidis ATCC 35984 biofilm; assay: MBEC model (ASTM E2799), liquid formulas; type: cell-based; details: treated 24 hours
Protocol: as §1, §2

[5] = test system: E. faecalis ATCC 29212 biofilm; assay: MBEC model (ASTM E2799), liquid formulas; type: cell-based; details: treated 24 hours
Protocol: as §1, §2

[6] = test system: P. aeruginosa NCTC 10662 biofilm; assay: MBEC model (ASTM E2799), liquid formulas; type: cell-based; details: treated 24 hours
Protocol: as §1, §2

S. aureus biofilms = assay: CDC bioreactor biofilm LR/kill, EDTA compounds at 100 ppm silver; type: cell-based; details: 100 ppm of silver, exposed 24 hours
Protocol: (§3) Microbial cultures were exposed to compounds for 24 hours. Compounds were diluted according to 100 ppm of silver. Biofilms were formed using the CDC bioreactor. Samples were performed in triplicate.

P. aeruginosa biofilms [7] = assay: as above; type: cell-based; details: 100 ppm of silver, exposed 24 hours
Protocol: as §3

S. aureus wound biofilm = assay: Wound biofilm model (Labskin), histological examination; type: cell-based; details: 100 ppm; day 6; vs untreated S. aureus wound biofilm
cells = assay: Direct cytotoxicity, Neutral Red Uptake assay
[8] = Elution from collagen films; type: physicochemical; details: for Elution in saline (ppm) EDTA / Elution in saline (ppm) Zinc / Elution in water (ppm) EDTA / Elution in saline (ppm) Silver / Elution in water (ppm) Silver / Elution in water (ppm) Zinc: collagen film; for Overall zinc eluted out from collagen films: 5 days; for In total EDTA eluted out from collagen films: over 5 days; for In total silver eluted out from collagen films: over the 5 days
Protocol: The EDTA compounds 1-4 were added to collagen films and then investigated for elution of these complexes. The collagen film was prepared from a solution of oxidized bovine atelocollagen type I, glycerol and EDTA compounds 1-4. 1.8 ml 10% glycerol solution was added into 20 ml oxidized bovine atelocollagen type I solution. 5 ml EDTA complex were added into the solution with vigorous stirring, and the mixture was adjusted to pH=7.0 by dropwise addition of 5% NaOH. The final solution was adjusted to 30 ml by ultrapure water and was cast into PVC mould. The solution was dried in a fume hood overnight. All the collagen films, impregnated with the EDTA complexes were immersed in water, saline or simulated wound fluid.

P. aeruginosa biofilms [9] = assay: MBEC plate 48-hour biofilm, liquid EDTA-Ag2-Zn compound; type: cell-based
Source text: Biofilms were formed using the MBEC plate method. Log reduction (LR) values are expressed with standard error. N.D (not determined) is stated when no colonies were detected upon enumeration.

[10] = Displacement of metals from EDTA complexes by physiological saline; type: physicochemical
Protocol: Adding saline to the suspension of Ag4(EDTA), the suspension quickly precipitated a solid (AgCl). The precipitate was filtered off, washed with deionized water 4 times; and then dried in a vacuum oven at 50° C. in a dark flask to avoid exposure to direct light.
The displacement experiment described above was repeated for compounds 1-4 to provide the percent of the displacement of silver, copper, zinc from the EDTA complexes by physiological saline.

[11] = test system: S. aureus 24-hour CDC biofilms; assay: Colonies after exposure of 24-hour CDC biofilms to EDTA compounds; type: cell-based
[12] = day 1, listed as EDTA compound 4

With `O=C([O-])CN(CCN(CC(=O)[O-])CC(=O)[O-])CC(=O)[O-].[Ag+].[Ag+].[Zn+2]` [Compound 4, Ag2ZnEDTA] the “secreted IL-6 (inflammatory marker)” value (interleukin-6 (IL-6)) was “significant reduction”, the “Number of colonies detected” value [1] was 0 Cfu/ml and the Kill % ([2]; 50 ppm, 24-Hour Biofilm) was 100%. The LR ([2]; 50 ppm, 24-Hour Biofilm) was 6.44, the Kill % ([2]; 50 ppm, 48-Hour Biofilm) was 100% and the LR ([2]; 50 ppm, 48-Hour Biofilm) was 6.50. It also gave a Kill % ([2]; 100 ppm, 24-Hour Biofilm) of 100%, an LR ([2]; 100 ppm, 24-Hour Biofilm) of 6.44 and a Kill % ([2]; 100 ppm, 48-Hour Biofilm) of 100%. For the same compound, the LR ([2]; 100 ppm, 48-Hour Biofilm) was 6.50, the Kill % ([3]; 50 ppm, 24-Hour Biofilm) was 100% and the LR ([3]; 50 ppm, 24-Hour Biofilm) was 5.40. It also gave a Kill % ([3]; 50 ppm, 48-Hour Biofilm) of 100%, an LR ([3]; 50 ppm, 48-Hour Biofilm) of 6.43 and a Kill % ([3]; 100 ppm, 24-Hour Biofilm) of 100%. For the same compound, the LR ([3]; 100 ppm, 24-Hour Biofilm) was 5.40, the Kill % ([3]; 100 ppm, 48-Hour Biofilm) was 100% and the LR ([3]; 100 ppm, 48-Hour Biofilm) was 6.43. It also gave a Kill % ([4]; 50 ppm, 24-Hour Biofilm) of 100%, an LR ([4]; 50 ppm, 24-Hour Biofilm) of 6.09 and a Kill % ([4]; 50 ppm, 48-Hour Biofilm) of 100%. It also gave an LR ([4]; 50 ppm, 48-Hour Biofilm) of 6.41, a Kill % ([4]; 100 ppm, 24-Hour Biofilm) of 100% and an LR ([4]; 100 ppm, 24-Hour Biofilm) of 6.09. For the same compound, the Kill % ([4]; 100 ppm, 48-Hour Biofilm) was 100%, the LR ([4]; 100 ppm, 48-Hour Biofilm) was 6.41 and the Kill % ([5]; 50 ppm, 24-Hour Biofilm) was 100%. For the same compound, the LR ([5]; 50 ppm, 24-Hour Biofilm) was 6.35, the Kill % ([5]; 50 ppm, 48-Hour Biofilm) was 100% and the LR ([5]; 50 ppm, 48-Hour Biofilm) was 6.40. The Kill % ([5]; 100 ppm, 24-Hour Biofilm) was 100%, the LR ([5]; 100 ppm, 24-Hour Biofilm) was 6.35 and the Kill % ([5]; 100 ppm, 48-Hour Biofilm) was 100%. It also gave an LR ([5]; 100 ppm, 48-Hour Biofilm) of 6.40, a Kill % ([6]; 50 ppm, 24-Hour Biofilm) of 100% and an LR ([6]; 50 ppm, 24-Hour Biofilm) of 7.44. For the same compound, the Kill % ([6]; 50 ppm, 48-Hour Biofilm) was 100%, the LR ([6]; 50 ppm, 48-Hour Biofilm) was 8.44 and the Kill % ([6]; 100 ppm, 24-Hour Biofilm) was 100%. It also gave an LR ([6]; 100 ppm, 24-Hour Biofilm) of 7.44, a Kill % ([6]; 100 ppm, 48-Hour Biofilm) of 100% and an LR ([6]; 100 ppm, 48-Hour Biofilm) of 8.44. For the same compound, the “Kill %” value (S. aureus biofilms) was 99.98%, the LR (S. aureus biofilms) was 3.73 ± 0.18 and the “Kill %” value (P. aeruginosa biofilms [7]) was 99.95%. The LR (P. aeruginosa biofilms [7]) was 3.34 ± 0.11, the “amount of microorganisms within the tissues (histology)” value (S. aureus wound biofilm) was “reduced amount of microorganisms within the tissues” and the Interpretation (cells; 25 ppm) was “Cytotoxic (if the percentage viability is less than 70% of the untreated control, then the substance is considered cytotoxic)”. For the same compound, the “Percentage of Control/Percentage Viability (%)” value (cells; 25 ppm) was 62.67 ± 20.39%, the Interpretation (cells; 50 ppm) was “Non cytotoxic (if the percentage viability is less than 70% of the untreated control, then the substance is considered cytotoxic)” and the “Percentage of Control/Percentage Viability (%)” value (cells; 50 ppm) was 72.93% and 72.93 ± 12.90%. The Interpretation (cells; 100 ppm) was “Cytotoxic (if the percentage viability is less than 70% of the untreated control, then the substance is considered cytotoxic)”, the “Percentage of Control/Percentage Viability (%)” value (cells; 100 ppm) was 56.41 ± 1.83% and the “Elution in saline (ppm) EDTA” value ([8]; day 1) was 9.75 ± 1.31 ppm. For the same compound, the “Elution in saline (ppm) Zinc” value ([8]; day 1) was 5.65 ± 0.06 ppm, the “Elution in water (ppm) EDTA” value ([8]; day 1) was 9.25 ± 0.90 ppm and the “Elution in saline (ppm) Silver” value [8, 12] was 20.34±1.42 ppm. For the same compound, the “Elution in water (ppm) Silver” value [8, 12] was 19.08±0.92 ppm, the “Elution in water (ppm) Zinc” value [8, 12] was 9.86±0.39 ppm and the “Elution in saline (ppm) EDTA” value ([8]; day 2) was 0.47 ± 0.35 ppm. The “Elution in saline (ppm) Silver” value ([8]; day 2) was 14.49 ± 2.63 ppm, the “Elution in saline (ppm) Zinc” value ([8]; day 2) was 6.26 ± 0.67 ppm and the “Elution in water (ppm) EDTA” value ([8]; day 2) was 0.96 ± 0.64 ppm. For the same compound, the “Elution in water (ppm) Silver” value ([8]; day 2) was 12.61 ± 1.04 ppm, the “Elution in water (ppm) Zinc” value ([8]; day 2) was 9.60 ± 0.33 ppm and the “Elution in saline (ppm) EDTA” value ([8]; day 3) was 0.40 ± 0.08 ppm. For the same compound, the “Elution in saline (ppm) Silver” value ([8]; day 3) was 15.23 ± 2.41 ppm, the “Elution in saline (ppm) Zinc” value ([8]; day 3) was 6.44 ± 0.60 ppm and the “Elution in water (ppm) EDTA” value ([8]; day 3) was 1.53 ± 1.08 ppm. For the same compound, the “Elution in water (ppm) Silver” value ([8]; day 3) was 10.64 ± 1.19 ppm, the “Elution in water (ppm) Zinc” value ([8]; day 3) was 8.08 ± 0.70 ppm and the “Elution in saline (ppm) EDTA” value ([8]; day 4) was −0.13 ± 0.90 ppm. The “Elution in saline (ppm) Silver” value ([8]; day 4) was 12.93 ± 2.10 ppm, the “Elution in saline (ppm) Zinc” value ([8]; day 4) was 5.58 ± 0.33 ppm and the “Elution in water (ppm) EDTA” value ([8]; day 4) was 0.24 ± 0.28 ppm. For the same compound, the “Elution in water (ppm) Silver” value ([8]; day 4) was 9.56 ± 0.79 ppm, the “Elution in water (ppm) Zinc” value ([8]; day 4) was 6.24 ± 0.40 ppm and the “Elution in saline (ppm) EDTA” value ([8]; day 5) was −0.07 ± 0.93 ppm. For the same compound, the “Elution in saline (ppm) Silver” value ([8]; day 5) was 13.30 ± 2.14 ppm, the “Elution in saline (ppm) Zinc” value ([8]; day 5) was 5.18 ± 0.15 ppm and the “Elution in water (ppm) EDTA” value ([8]; day 5) was 1.17 ± 1.31 ppm. For the same compound, the “Elution in water (ppm) Silver” value ([8]; day 5) was 10.35 ± 0.73 ppm, the “Elution in water (ppm) Zinc” value ([8]; day 5) was 6.53 ± 0.23 ppm and the “Overall zinc eluted out from collagen films” value ([8]; in saline) was 27.36%. For the same compound, the “In total EDTA eluted out from collagen films” value ([8]; in saline) was 13.44%, the “In total silver eluted out from collagen films” value ([8]; in saline) was 66.22% and the “Overall zinc eluted out from collagen films” value ([8]; in water) was 37.89%. The “In total EDTA eluted out from collagen films” value ([8]; in water) was 16.95%, the “In total silver eluted out from collagen films” value ([8]; in water) was 54.03% and the “% Kill” value (P. aeruginosa biofilms [9]; 62.5 ppm, treatment 1 hours) was 100%. For the same compound, the “% Kill” value (P. aeruginosa biofilms [9]; 62.5 ppm, treatment 24 hours) was 100%, the “% Kill” value (P. aeruginosa biofilms [9]; 125 ppm, treatment 1 hours) was 100% and the “% Kill” value (P. aeruginosa biofilms [9]; 125 ppm, treatment 24 hours) was 100%. The “% Kill” value (P. aeruginosa biofilms [9]; 250 ppm, treatment 1 hours) was 100%, the “% Kill” value (P. aeruginosa biofilms [9]; 250 ppm, treatment 24 hours) was 100% and the “% Kill” value (P. aeruginosa biofilms [9]; 500 ppm, treatment 1 hours) was 100%. For the same compound, the “% Kill” value (P. aeruginosa biofilms [9]; 500 ppm, treatment 24 hours) was 100%, the “% Kill” value (P. aeruginosa biofilms [9]; 1000 ppm, treatment 1 hours) was 100% and the “% Kill” value (P. aeruginosa biofilms [9]; 1000 ppm, treatment 24 hours) was 100%. The “Displacement (%) Silver” value [10] was 80.77 ± 6.45%, the “Displacement (%) Zinc” value [10] was 38.86 ± 9.01 % and the “Number of colonies detected” value [11] was 0 Cfu/ml.
